In experiment [1] the test system is adults with OSA and excessive sleepiness. The experiment is described as follows: PGI-C and CGI-C, phase 3 randomized withdrawal study in OSA. Type of experiment: in vivo, human. The note with it: Double-Blind Withdrawal Phase, switched to placebo compared with stayed on APC. As to the method: The study was a double-blind, placebo-controlled, enriched, randomized withdrawal design (FIG. 1). In the Titration Phase (weeks 1-2), patients started on a once-daily dose of APC 75 mg and could be titrated up or down every 3 days to reach a maximum tolerated dose of APC 75, 150, or 300 mg. In the Stable-Dose Phase (weeks 3-4), patients continued to receive the dose that they were titrated to in the Titration Phase for 2 weeks. […]
Efficacy was based on change from week 4 to 6 on the co-primary endpoints of MWT and ESS and percentage of patients reported as improved on the PGI-C and Clinician Global Impression of Change (CGI-C); assessed on a 7-point scale from 1 (very much improved) to 7 (very much worse).
MWT and ESS data were analyzed using a mixed-effect model repeated measures (MMRM); PGI-C and CGI-C were evaluated using a chi-square test. […] Safety and tolerability were evaluated based on treatment-emergent adverse events (TEAEs), vital signs, and laboratory values.

In experiment [2] the test system is patients with narcolepsy type 1 or type 2. The experiment is described as follows: ESS, 12-week phase 3 study in narcolepsy. In kind it is in vivo, human. How it is done:
The ESS is a subjective sleepiness test that is well known in the art and routinely used to measure the sleepiness level of a subject. The scale is intended to measure daytime sleepiness through the use of a short questionnaire that asks the subject to rate his or her probability of falling asleep on a scale of increasing probability from 0 to 3 for eight different situations that most people engage in during their daily lives. The scores for the eight questions are added together to obtain a single number that estimates the subject's average sleep propensity (ASP). A number in the 0-10 range is considered to be normal while 11-12 indicates mild excessive sleepiness, 13-15 indicates moderate excessive sleepiness, and 16 or higher indicates severe excessive sleepiness. Narcolepsy patients have an average score of about 17. Obstructive sleep apnea (OSA) patients with excessive sleepiness have an average score of about 15.
The study was a 12-week, double-blind, randomized, placebo-controlled, parallel-group study. […]
Efficacy analyses were based on the modified intent-to-treat population (mITT), defined as all patients who were randomized, received at least 1 dose of study drug, and had baseline and at least 1 post-baseline evaluation of both MWT and ESS. MWT and ESS were analyzed using a mixed-effect repeated measures (MMRM) model. PGI-C was analyzed using a chi-square test. […]

SMILES strings stand for the structures.

As to `NC(=O)OC[C@H](N)Cc1ccccc1` [JZP-110, (R)-2-amino-3-phenylpropyl carbamate], in experiment [1], the “Worsening of overall condition on the PGI-C and CGI-C” value is on record as “Significantly higher percentages of patients who were switched to placebo experienced a worsening of their overall condition”. In experiment [2] (150 and 300 mg, as early as week 1), the “ESS scores, effect at week 1” value was “Statistically significant effects”. In addition, the “ESS scores relative to placebo” value in experiment [2] (all doses, week 12, mITT) was “significantly decreased ESS scores relative to placebo”.
